Measured values as given in patent US20170280720A1, “ARGININE […] INHIBITORS AND USES THEREOF” (EPIZYME, INC., priority 2014, published 2017).

Molecular target: T1, human PRMT1 (Homo sapiens, UniProt Q99873)
T1 construct: GST-tagged PRMT1; made in house; host or cells: High Five insect cells (baculovirus, pFastBacI)
Assay: PRMT1 biochemical assay (3H-SAM Flashplate, peptide substrate)
Conditions: read-out: PRMT1_ IC50
Outline: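 FLAG-tagged full-length human PRMT1 (0.5 nM, GST-tagged, insect-cell expressed) preincubated 30 min at RT with compound, then biotinylated histone H4 36-50 peptide (20 nM) plus 200 nM 3H-SAM and 1.5 uM SAM in Bicine pH 7.6, 2% DMSO. 3H-methylated peptide captured on streptavidin Flashplate; IC50 from 3/4-parameter fit.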

T1 sequence (Q99873 with tags, fused parts or gaps): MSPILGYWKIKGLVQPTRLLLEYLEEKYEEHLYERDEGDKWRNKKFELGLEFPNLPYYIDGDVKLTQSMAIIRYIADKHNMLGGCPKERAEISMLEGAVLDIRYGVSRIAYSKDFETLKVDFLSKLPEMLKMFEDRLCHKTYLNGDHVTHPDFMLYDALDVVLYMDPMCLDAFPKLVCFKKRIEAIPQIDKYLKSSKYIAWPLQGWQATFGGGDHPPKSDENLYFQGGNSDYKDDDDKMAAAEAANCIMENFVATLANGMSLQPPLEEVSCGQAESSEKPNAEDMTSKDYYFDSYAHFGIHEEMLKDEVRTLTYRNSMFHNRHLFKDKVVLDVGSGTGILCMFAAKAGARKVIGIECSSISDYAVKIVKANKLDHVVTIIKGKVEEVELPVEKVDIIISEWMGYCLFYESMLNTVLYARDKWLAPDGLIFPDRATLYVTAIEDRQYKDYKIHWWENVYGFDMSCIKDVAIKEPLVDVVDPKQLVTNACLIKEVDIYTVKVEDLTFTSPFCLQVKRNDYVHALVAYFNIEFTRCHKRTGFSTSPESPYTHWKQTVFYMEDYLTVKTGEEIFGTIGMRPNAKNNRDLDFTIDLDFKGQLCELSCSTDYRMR

Structure (SMILES) | IC50
CC(C)n1ncc2c(C(=O)N3CCCCC3)cc(-c3cccc(CNCCN)c3)nc21 [Compound 153] | 1710 nM
CC(C)n1cnc2cc(-c3cccc(CN(C)CCN)c3)ccc21 [Compound 32] | 128 nM
CC(C)n1ncc2c(C(=O)NCC3CCOCC3)cc(-c3cccc(CN(C)CCNC4CC4)c3)nc21 [Compound 167] | 5890 nM
Cc1ccc(-n2cnc3cc(-c4ccc(CNCCN)cc4)ccc32)cc1 [Compound 131] | 841 nM
CNCCN(C)Cc1cccc(-c2cc(C(=O)NCc3cnn(C)c3C)c3cnn(C(C)C)c3n2)c1 [Compound 137] | 985 nM
CNCCN(C)Cc1cccc(-c2cc(C(=O)NC3CCOCC3)c3cnn(C4CCC4)c3n2)c1 [Compound 29] | 114 nM
CN(CCN)Cc1cccc(-c2nc(NCc3nccs3)c3cnn(C4CC4)c3n2)c1 [Compound 1] | 19.3 nM
CC(C)n1ncc2c(C(=O)N3CCCCC3)cc(-c3cccc(CN(C)CCN)c3)nc21 [Compound 43] | 188 nM
NCCNCc1ccc(-c2cnc3c(c2)CCC(=O)N3)cc1 [Compound 156] | 2410 nM
CNC(=O)Nc1cc(-c2cccc(CN(C)CCN)c2)nc2c1cnn2C(C)C [Compound 126] | 783 nM
CC(C)n1ncc2c(C(=O)NCc3c(F)cccc3F)cc(-c3cccc(CN(C)CCN)c3)nc21 [Compound 37] | 154 nM
CN(CCN)Cc1cccc(-c2cc(C(=O)NC3CCOCC3)c3cnn(CC(F)(F)F)c3n2)c1 [Compound 144] | 1200 nM
CC(C)n1ncc2c(C(=O)N[C@@H](C)c3ccccc3)cc(-c3cccc(CNCCN)c3)nc21 [Compound 160] | 4100 nM
CN(CCN)Cc1cccc(-c2cc(C(=O)NC3CCOCC3)c3cnn(C4CC4)c3n2)c1 [Compound 142] | 1110 nM
CNCCN(C)Cc1cccc(-c2cc(C(=O)NCC3CCOCC3)c3cnn(C4CCC4)c3n2)c1 [Compound 21] | 89 nM
NCCNCc1ccc(-c2cnc3c(c2)OCC(=O)N3)cc1 [Compound 358] | 78.5 nM
N#Cc1cccc(Cn2cnc3ccc(-c4ccc(CNCCN)cc4)cc32)c1 [Compound 145] | 1270 nM
CNCCN(C)Cc1cccc(-c2cc(NC(=O)NC3CCOCC3)c3cnn(C(C)C)c3n2)c1 [Compound 133] | 866 nM
CC(C)n1ncc2c(C(=O)NCC3CCN(C)CC3)cc(-c3cccc(CN(C)CCN(C)C)c3)nc21 [Compound 162] | 4320 nM
CN(CCN)Cc1cccc(-c2cc(C(=O)NC3CCOCC3)c3cnn(C)c3n2)c1 [Compound 158] | 3020 nM
CNCCN(C)Cc1cccc(-c2nc(NC3CCOCC3)c3cnn(C(C)(C)C)c3n2)c1 [Compound 27, N1-(3-(1-tert-butyl-4-(tetrahydro-2H-pyran-4-ylamino)-1H-pyrazolo[3,4-d]pyrimidin-6-yl)benzyl)-N1,N2-dimethylethane-1,2-diamine] | 106 nM

Structure (SMILES) | IC50
COc1cccc(Cc2nc3ccc(-c4ccc(CNCCN)cc4)cc3n2C(C)C)c1 [Compound 135] | 932 nM
CNCCN(C)Cc1cccc(-c2cc(C(=O)NCC3CCOCC3)c3cnn(C4CC4)c3n2)c1 [Compound 26] | 106 nM
CC(C)n1ncc2c(C(=O)NCc3ccccc3F)cc(-c3cccc(CNCCN)c3)nc21 [Compound 159] | 3140 nM
CN(CCN)Cc1cccc(-c2nc(NC3CCOCC3)c3cnn(C(C)(C)C)c3n2)c1 [Compound 18] | 72.8 nM
CNCCN(C)Cc1cccc(-c2cc(C(=O)N[C@@H](C)c3ccccc3)c3cn[nH]c3n2)c1 [Compound 12] | 59.4 nM
CC(C)n1ncc2c(C(=O)NCc3ccncc3)cc(-c3cccc(CNCCN)c3)nc21 [Compound 150] | 1600 nM
COc1ccc(Cn2cnc3ccc(-c4ccc(CNCCN)cc4)cc32)cc1 [Compound 132] | 848 nM
Cc1nn(C(C)C)c2nc(-c3cccc(CN(C)CCN)c3)cc(N3CCOCC3)c12 [Compound 22, N1-(3-(1-isopropyl-3-methyl-4-morpholino-1H-pyrazolo[3,4-b]pyridin-6-yl)benzyl)-N1-methylethane-1,2-diamine] | 95.2 nM
Cc1cccc(CCn2cnc3ccc(-c4ccc(CNCCN)cc4)cc32)c1 [Compound 143] | 1110 nM
CC(C)n1ncc2c(C(=O)NC3CCOCC3)cc(-c3cccc(CN(C)CCN)c3)nc21 [Compound 148] | 1480 nM
CC(C)n1ncc2c(NC3CC3)cc(-c3cccc(CN(C)CCN)c3)nc21 [Compound 41] | 172 nM
CC(C)n1ncc2c(C(=O)NCc3c(F)cccc3F)cc(-c3cccc(CNCCN)c3)nc21 [Compound 168] | 7810 nM
CN(CCN)Cc1cccc(-c2nc(NCc3cccnc3)c3cnn(C4CC4)c3n2)c1 [Compound 40] | 168 nM
Cc1cc2cc(-c3ccc(CNCCN)cc3)ccc2[nH]1 [Compound 141] | 1110 nM
CNCCN(C)Cc1cc(-c2cc(C(=O)NC3CCOCC3)c3cnn(C(C)C)c3n2)ccc1F [Compound 130] | 833 nM
CS(=O)(=O)N1CCC(Cn2cnc3ccc(-c4ccc(CNCCN)cc4)cc32)CC1 [Compound 129] | 821 nM
NCCNCc1ccc(-c2ccc3ncn(C4CCNCC4)c3c2)cc1 [Compound 157] | 2430 nM
CC(C)n1ncc2c(N3CCOCC3)cc(-c3cccc(CN(C)CCNC4CC4)c3)nc21 [Compound 163] | 4410 nM
CNCCN(C)Cc1cccc(-c2nc(NCc3cc(C)nn3C)c3cnn(C4CC4)c3n2)c1 [Compound 17] | 69.7 nM
COc1cccc(CNC(=O)c2cncc(-c3ccc(CNCCN)cc3)c2)c1 [Compound 356] | 755 nM
CC(C)n1cnc2ccc(-c3ccc(CNCCN)cc3)cc21 [Compound 166] | 5090 nM

Other lines, results leading:

IC50 | Structure (SMILES)
189 nM | CNCCN(C)Cc1cccc(-c2cc(C(=O)N[C@@H](C)c3ccccc3)c3cnn(C(C)C)c3n2)c1 [Compound 44]
153 nM | CNCCN(C)Cc1cccc(-c2ccc3c(c2)ncn3C(C)C)c1 [Compound 36]
10000 nM | CNCCN(C)Cc1cccc(-c2cc(NS(C)(=O)=O)c3cnn(C(C)C)c3n2)c1 [Compound 169]
2290 nM | CNCCN(C)Cc1cccc(-c2cc(OCC(F)(F)F)c3cnn(C(C)C)c3n2)c1 [Compound 154]
159 nM | CNCCN(C)Cc1cccc(-c2cc(C(=O)NCc3ccccc3F)c3cnn(C(C)C)c3n2)c1 [Compound 38]
145 nM | CNCCN(C)Cc1cccc(-c2ccc3c(c2)ncn3CCOC)c1 [Compound 34]
114 nM | CNCCN(C)Cc1cccc(-c2ccc3ncn(C(C)C)c3c2)c1 [Compound 28]
934 nM | CC(C)n1ncc2c(C(=O)N[C@@H](C)c3ccccc3)cc(-c3cccc(CN(C)CCN)c3)nc21 [Compound 136]
4170 nM | CCS(=O)(=O)Nc1cc(-c2cccc(CN(C)CCNC)c2)nc2c1cnn2C(C)C [Compound 161]
105 nM | CC(C)n1ncc2c(C(=O)NCc3ccc(F)cc3)cc(-c3cccc(CN(C)CCN)c3)nc21 [Compound 25]
4500 nM | CNCCN(C)Cc1cccc(-c2cc(NS(=O)(=O)C(F)(F)F)c3cnn(C(C)C)c3n2)c1 [Compound 164]
164 nM | CNCCN(C)Cc1cccc(-c2cnc3c(c2)c(Br)nn3CC2CCOCC2)c1 [Compound 39]
152 nM | CNCCN(C)Cc1cccc(-c2ccc3cn(Cc4ccccc4)nc3n2)c1 [Compound 35]
69.6 nM | Cc1c(C(=O)NCc2ccccc2)cc(-c2cccc(CN(C)CCN)c2)c2cn[nH]c12 [Compound 15]
69.6 nM | COc1ccc(Cn2cnc3ccc(-c4ccc(CN(C)CCN)cc4)cc32)cc1 [Compound 16]
2300 nM | CC(C)n1ncc2c(C(=O)NCc3ccccc3)cc(-c3cccc(CNCCN)c3)nc21 [Compound 155]
48.5 nM | CC(C)n1ncc2c(C(=O)N[C@@H](C)c3ccccc3)cc(-c3cccc(CN(C)CCN)c3)cc21 [Compound 10]
808 nM | CCC(=O)c1cc(-c2cccc(CN(C)CCNC)c2)nc2c1cnn2C(C)C [Compound 128]

IC50 | Structure (SMILES)
128 nM | CC(C)n1ncc2c(C(=O)N(C)Cc3ccccc3)cc(-c3cccc(CN(C)CCN)c3)nc21 [Compound 31]
194 nM | CNCCN(C)Cc1cccc(-c2cc(Oc3ccccc3)c3cnn(C(C)C)c3n2)c1 [Compound 45]
82.3 nM | CN(CCN)Cc1ccc(-c2ccc3ncn(-c4ccccc4)c3c2)cc1 [Compound 19]
1040 nM | CNCCN(C)Cc1cccc(-c2cc(NC(=O)NC)c3cnn(C(C)C)c3n2)c1 [Compound 138]
118 nM | CNCCN(C)Cc1cccc(-c2ccc3ncn(C4CCOCC4)c3c2)c1 [Compound 30]
512 nM | CNCCN(C)Cc1cccc(-c2cnc3c(c2)OCC(=O)N3)c1 [Compound 355]
925 nM | CC(C)n1ncc2c(C(=O)NCc3ccccc3)cc(-c3cccc(CNCCN)c3)cc21 [Compound 134]
51.6 nM | CNCCN(C)Cc1cccc(-c2cc(NC3CC3)c3cnn(C(C)C)c3n2)c1 [Compound 11]
1050 nM | CNCCN(C)Cc1cccc(-c2cc(NS(=O)(=O)N(C)C)c3cnn(C(C)C)c3n2)c1 [Compound 139]
185 nM | CNCCN(C)Cc1cccc(-c2cc(C(=O)N3CCc4ccccc4C3)c3cnn(C(C)C)c3n2)c1 [Compound 42]
69.2 nM | CC(C)n1ncc2c(C(=O)NCc3ccccc3)cc(-c3cccc(CN(C)CCN)c3)cc21 [Compound 14]
66.2 nM | CC(C)n1cc2c(N)cc(-c3cccc(CN(C)CCN)c3)nc2n1 [Compound 13]
209 nM | CNCCN(C)Cc1cccc(-c2cc(C(=O)NCc3c(F)cccc3F)c3cnn(C(C)C)c3n2)c1 [Compound 47]
1660 nM | CNCCN(C)Cc1cccc(-c2cc(N)c3cnn(C(C)C)c3n2)c1 [Compound 151]
97.1 nM | CC(C)n1ncc2c(C(=O)N3CCc4ccccc4C3)cc(-c3cccc(CN(C)CCN)c3)nc21 [Compound 23]
85 nM | CNCCN(C)Cc1cccc(-c2cc(Nc3ncc(C)s3)c3cnn(C(C)C)c3n2)c1 [Compound 20]
10000 nM | CNCCN(C)Cc1cccc(-c2cc(NS(C)(=O)=O)c3cnn(C(C)C)c3n2)c1 [Compound 170]
